According to US20240182445A1 (ONO PHARMACEUTICAL CO., LTD., priority 2019, published 2024):

Target: T1, human TREK-1 (Homo sapiens, UniProt O95069)
T1 construct: expressed in transfected cells
T1 sequence (O95069 1-426): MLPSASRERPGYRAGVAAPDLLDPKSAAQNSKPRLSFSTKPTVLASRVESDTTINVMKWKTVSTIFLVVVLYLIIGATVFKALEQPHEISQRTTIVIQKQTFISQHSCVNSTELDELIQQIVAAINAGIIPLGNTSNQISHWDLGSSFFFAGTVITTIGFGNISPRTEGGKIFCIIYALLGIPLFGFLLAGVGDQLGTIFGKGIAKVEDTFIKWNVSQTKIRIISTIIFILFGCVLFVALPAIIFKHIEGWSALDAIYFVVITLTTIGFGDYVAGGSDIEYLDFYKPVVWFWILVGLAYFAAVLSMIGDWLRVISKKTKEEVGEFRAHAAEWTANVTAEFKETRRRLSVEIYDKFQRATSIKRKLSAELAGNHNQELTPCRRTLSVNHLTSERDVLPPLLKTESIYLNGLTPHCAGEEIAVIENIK
Assay: TREK-1 Thallium (Tl+) flux assay, Method 1
Format: cell-based
Settings: TREK-1 Thallium (Tl+) flux assay; values without footnote *12 are Method 1
Summary of the method: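 Readout: Thallos fluorescence ratio, taken 25 s post-thallium relative to the pre-thallium baseline average, then converted to % inhibition. Cells were CHO-K1 stably expressing human TREK-1, dye-loaded and exposed to test compound (vehicle 0.3% DMSO) for 10 min prior to thallium stimulation.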

| SMILES | IC50 [nM] |
| --- | --- |
| Cc1cc(C#Cc2ccc(F)cc2)cnc1NC(=O)c1c(Cl)cnn1C1CC2(C1)CN(C(=O)C1CC1)C2 [Compound 115, 4-chloro-1-(2-(cyclopropanecarbonyl)-2-azaspiro[3.3]heptan-6-yl)-N-(5-((4-fluorophenyl)ethynyl)-3-methylpyridin-2-yl)-1H-pyrazole-5-carboxamide] | 200 |
| Cc1cc(C#Cc2ccc(F)cc2)cnc1NC(=O)c1c(Cl)cnn1C1CC2(C1)CN(C(=O)C(C)C)C2 [Compound 116, 4-chloro-N-(5-((4-fluorophenyl)ethynyl)-3-methylpyridin-2-yl)-1-(2-isobutyryl-2-azaspiro[3.3]heptan-6-yl)-1H-pyrazole-5-carboxamide] | 200 |
| CC(C)C(=O)N[C@H]1CC[C@H](n2ncc(Cl)c2C(=O)Nc2ncc(C#Cc3ccccc3)cc2F)CC1 [Compound 117] | 200 |
| Cc1cc(C#Cc2ccccc2)cnc1NC(=O)c1c(Cl)cnn1C[C@@H]1CCN(C(=O)C(C)C)C[C@@H]1F [Compound 118, 4-chloro-1-(((3R,4S)-3-fluoro-1-isobutyrylpiperidin-4-yl)methyl)-N-(3-methyl-5-(phenylethynyl)pyridin-2-yl)-1H-pyrazole-5-carboxamide] | 200 |
| Cc1cc(C#Cc2ccc(F)cc2)cnc1NC(=O)c1c(Cl)cnn1CC1(C#N)CCN(C(=O)C(C)C)CC1 [Compound 119, 4-chloro-1-((4-cyano-1-isobutyrylpiperidin-4-yl)methyl)-N-(5-((4-fluorophenyl)ethynyl)-3-methylpyridin-2-yl)-1H-pyrazole-5-carboxamide] | 200 |
| CC(=O)N1CCC(n2ncc(Cl)c2C(=O)Nc2ncc(C#Cc3ccccc3)cc2F)C1 (centres unmarked) [Compound 121, 1-(1-acetylpyrrolidin-3-yl)-4-chloro-N-(3-fluoro-5-(phenylethynyl)pyridin-2-yl)-1H-pyrazole-5-carboxamide] | 210 |
| CC(=O)N1CC(n2ncc(Cl)c2C(=O)Nc2ncc(C#Cc3ccccc3)cc2C)C1 [Compound 122, 1-(1-acetylazetidin-3-yl)-4-chloro-N-(3-methyl-5-(phenylethynyl)pyridin-2-yl)-1H-pyrazole-5-carboxamide] | 210 |
| CC(=O)N1CCC(Cn2ncc(Cl)c2C(=O)Nc2ncc(C#Cc3cccs3)cc2C)CC1 [Compound 123, 1-((1-acetylpiperidin-4-yl)methyl)-4-chloro-N-(3-methyl-5-(thiophen-2-ylethynyl)pyridin-2-yl)-1H-pyrazole-5-carboxamide] | 210 |
| CC(C)C(=O)N[C@H]1C[C@@H](n2ncc(Cl)c2C(=O)Nc2ncc(C#Cc3ccccc3)cc2F)C1 [Compound 124, 4-chloro-N-(3-fluoro-5-(phenylethynyl)pyridin-2-yl)-1-(cis-3-isobutyramidocyclobutyl)-1H-pyrazole-5-carboxamide] | 210 |
| Cc1cc(C#Cc2ccc(F)cc2)cnc1NC(=O)c1c(Cl)cnn1[C@H]1CC[C@@H](NC(=O)C(C)C)CC1 [Compound 125, 4-chloro-N-(5-((4-fluorophenyl)ethynyl)-3-methylpyridin-2-yl)-1-(cis-4-isobutyramidocyclohexyl)-1H-pyrazole-5-carboxamide] | 210 |
| Cc1cc(C#Cc2ccccc2)cnc1NC(=O)c1c(Cl)cnn1CC1(C#N)CCN(C(=O)OC(C)(C)C)CC1 [Compound 126, tert-butyl 4-((4-chloro-5-((3-methyl-5-(phenylethynyl)pyridin-2-yl)carbamoyl)-1H-pyrazol-1-yl)methyl)-4-cyanopiperidine-1-carboxylate] | 210 |
| Cc1cc(C#Cc2ccccc2)cc(F)c1NC(=O)c1c(Cl)cnn1CC1(C#N)CC1 [Compound 127, 4-chloro-1-((1-cyanocyclopropyl)methyl)-N-(2-fluoro-6-methyl-4-(phenylethynyl)phenyl)-1H-pyrazole-5-carboxamide] | 220 |
| CC(=O)N1CC[C@H](n2ncc(Cl)c2C(=O)Nc2ncc(C#Cc3ccccc3)cc2C)C1 [Compound 128, (S)-1-(1-acetylpyrrolidin-3-yl)-4-chloro-N-(3-methyl-5-(phenylethynyl)pyridin-2-yl)-1H-pyrazole-5-carboxamide] | 220 |

The remaining compounds from weak to strong by IC50, led by results:

| IC50 [nM] | SMILES |
| --- | --- |
| 200 | CC(=O)N1C[C@H]2C[C@H](n3ncc(Cl)c3C(=O)Nc3ncc(C#Cc4cccs4)cc3C)C[C@H]2C1 [Compound 110, 1-[(3aR,5s,6aS)-2-acetyloctahydrocyclopenta[c]pyrrol-5-yl]-4-chloro-N-{3-methyl-5-[(thiophen-2-yl)ethynyl]pyridin-2-yl}-1H-pyrazole-5-carboxamide] |
| 200 | Cc1cc(C#Cc2cccs2)cnc1NC(=O)c1c(Cl)cnn1C1CCN(C(=O)C(C)C)CC1 [Compound 111, 4-chloro-1-(1-isobutyrylpiperidin-4-yl)-N-(3-methyl-5-(thiophen-2-ylethynyl)pyridin-2-yl)-1H-pyrazole-5-carboxamide] |
| 200 | CC1(C(=O)N2CCC(n3ncc(Cl)c3C(=O)Nc3ncc(C#Cc4ccccc4)cc3F)CC2)CCC1 [Compound 112, 4-chloro-N-(3-fluoro-5-(phenylethynyl)pyridin-2-yl)-1-(1-(1-methylcyclobutane-1-carbonyl)piperidin-4-yl)-1H-pyrazole-5-carboxamide] |
| 200 | CC(=O)N1CC2(CC(n3ncc(Cl)c3C(=O)Nc3ncc(C#Cc4ccccc4)cc3F)C2)C1 [Compound 113, 1-(2-acetyl-2-azaspiro[3.3]heptan-6-yl)-4-chloro-N-(3-fluoro-5-(phenylethynyl)pyridin-2-yl)-1H-pyrazole-5-carboxamide] |
| 190 | CC(C)(C)C(=O)N1CCC(n2ncc(Cl)c2C(=O)Nc2ncc(C#Cc3ccccc3)cc2F)CC1 [Compound 100, 4-chloro-N-(3-fluoro-5-(phenylethynyl)pyridin-2-yl)-1-(1-pivaloylpiperidin-4-yl)-1H-pyrazole-5-carboxamide] |
| 190 | Cc1cc(C#Cc2ccc(F)cc2)cnc1NC(=O)c1c(Cl)cnn1C1CCN(C(=O)C2CC2)CC1 [Compound 101, 4-chloro-1-(1-(cyclopropanecarbonyl)piperidin-4-yl)-N-(5-((4-fluorophenyl)ethynyl)-3-methylpyridin-2-yl)-1H-pyrazole-5-carboxamide] |
| 190 | CC(=O)N1CCC(CCn2ncc(Cl)c2C(=O)Nc2ncc(C#Cc3ccccc3)cc2F)CC1 [Compound 102, 1-(2-(1-acetylpiperidin-4-yl)ethyl)-4-chloro-N-(3-fluoro-5-(phenylethynyl)pyridin-2-yl)-1H-pyrazole-5-carboxamide] |
| 190 | Cc1cc(C#Cc2cccs2)cnc1NC(=O)c1c(Cl)cnn1CC1CCN(C(=O)C2COCCO2)CC1 (centres unmarked) [Compound 103, 1-((1-(1,4-dioxane-2-carbonyl)piperidin-4-yl)methyl)-4-chloro-N-(3-methyl-5-(thiophen-2-ylethynyl)pyridin-2-yl)-1H-pyrazole-5-carboxamide] |
| 190 | Cc1cc(C#Cc2cccc(F)c2)cnc1NC(=O)c1c(Cl)cnn1CC1CCN(C(=O)C2COCCO2)CC1 (centres unmarked) [Compound 104, 1-((1-(1,4-dioxane-2-carbonyl)piperidin-4-yl)methyl)-4-chloro-N-(5-((3-fluorophenyl)ethynyl)-3-methylpyridin-2-yl)-1H-pyrazole-5-carboxamide] |
| 190 | CC(=O)N1CCOC(Cn2ncc(Cl)c2C(=O)Nc2ncc(C#Cc3ccccc3)cc2C)C1 (centres unmarked) [Compound 105, 1-((4-acetylmorpholin-2-yl)methyl)-4-chloro-N-(3-methyl-5-(phenylethynyl)pyridin-2-yl)-1H-pyrazole-5-carboxamide] |
| 190 | CCC(=O)N1CCC(n2ncc(Cl)c2C(=O)Nc2ncc(C#Cc3ccccc3)cc2C)C1 (centres unmarked) [Compound 106, 4-chloro-N-(3-methyl-5-(phenylethynyl)pyridin-2-yl)-1-(1-propionylpyrrolidin-3-yl)-1H-pyrazole-5-carboxamide] |
| 190 | CC(=O)NC1CCCC(n2ncc(Cl)c2C(=O)Nc2ncc(C#Cc3ccccc3)cc2C)C1 (centres unmarked) [Compound 107, 1-(3-acetamidocyclohexyl)-4-chloro-N-(3-methyl-5-(phenylethynyl)pyridin-2-yl)-1H-pyrazole-5-carboxamide hydrofluoride] |
| 190 | Cc1cc(C#Cc2ccccc2)cnc1NC(=O)c1c(Cl)cnn1C[C@H]1CCN(C(=O)C(C)C)C[C@H]1F [Compound 108, 4-chloro-1-(((3S,4R)-3-fluoro-1-isobutyrylpiperidin-4-yl)methyl)-N-(3-methyl-5-(phenylethynyl)pyridin-2-yl)-1H-pyrazole-5-carboxamide] |
| 190 | CC(=O)N1CC[C@@H](Cn2ncc(Cl)c2C(=O)Nc2ncc(C#Cc3ccccc3)cc2C)[C@@H](F)C1 [Compound 109, 1-(((3R,4S)-1-acetyl-3-fluoropiperidin-4-yl)methyl)-4-chloro-N-(3-methyl-5-(phenylethynyl)pyridin-2-yl)-1H-pyrazole-5-carboxamide] |
| 180 | CC(=O)N1CCC(Cn2ncc(Cl)c2C(=O)Nc2ncc(C#Cc3ccccc3)cc2C)C(F)(F)C1 (centres unmarked) [Compound 98, 1-((1-acetyl-3,3-difluoropiperidin-4-yl)methyl)-4-chloro-N-(3-methyl-5-(phenylethynyl)pyridin-2-yl)-1H-pyrazole-5-carboxamide] |
| 180 | CC(=O)N1CC[C@H](n2ncc(Cl)c2C(=O)Nc2ncc(C#Cc3ccccc3)cc2C)[C@H](F)C1 [Compound 99, 1-((3R,4S)-1-acetyl-3-fluoropiperidin-4-yl)-4-chloro-N-(3-methyl-5-(phenylethynyl)pyridin-2-yl)-1H-pyrazole-5-carboxamide] |
